Assay results: patent publication US6479525B2, “Aspartate derivative of amlodipine” (Synthon BV, priority 2000, dated 2002)

Test system: isolated heart tissue
Assay: reduction of calcium-induced contraction of isolated heart tissue in vitro (calcium channel blocking activity)
Conditions: degree of reduction of contraction of an isolated heart tissue induced by an addition of calcium ions in vitro

In the case of CCOC(=O)C1=C(COCCN[C@@H](CC(=O)O)C(=O)O)NC(C)=C(C(=O)OC)C1c1ccccc1Cl (stereo partly shown) [Compound of formula (1), N-(2-{[4-(2-chlorophenyl)-3-(ethoxycarbonyl)-5-(methoxycarbonyl)-6-methyl-1,4-dihydro-2-pyridinyl]methoxy}ethyl)aspartic acid], the “calcium channel blocking activity (ability to inhibit the movement of calcium into a cell)” value is reported as “has been shown”.
